Measured values published in ChEMBL document CHEMBL5357004 (J Nat Prod, 2024).
Active and inactive are the calls of the source. The calls are words filed in the database; no cut-off is given here.

Columns and labels:
[1] = Cytotoxicity against C57BL6/J mouse brown Preadipocyte assessed as decrease in cell viability > 8 uM measured for 24 hrs by trypan blue staining based hemocytometer analysis; assay type: toxicity
[2] = Cytotoxicity against C57BL6/J mouse brown Preadipocyte assessed as decrease in cell viability at 4 uM measured for 24 hrs by trypan blue staining based hemocytometer analysis; assay type: toxicity
[3] = Inhibition of adipogenic differentiation in C57BL/6J mouse brown Preadipocyte assessed as reduction in neutral lipid content at 4 uM by Oil Red O staining based light microscopy; assay type: functional
[4] = Effect on Pparg1 mRNA level in mouse Adipocyte by qRT-PCR analysis; assay type: functional
[5] = Effect on Pparg2 mRNA level in mouse Adipocyte by qRT-PCR analysis; assay type: functional
[6] = Effect on CEBPA mRNA level in mouse Adipocyte by qRT-PCR analysis; assay type: functional
[7] = Effect on CEBPB mRNA level in mouse Adipocyte by qRT-PCR analysis; assay type: functional
[8] = Downregulation of C/EBPdelta protein expression level in mouse Adipocyte by Western blot analysis; assay type: functional
Adipocyte [9] = assay: Downregulation of C/EBPalpha protein expression level in mouse Adipocyte by Western blot analysis; assay type: functional, cell-based
Adipocyte [10] = assay: Downregulation of C/EBPbeta protein expression level in mouse Adipocyte by Western blot analysis; assay type: functional, cell-based
Adipocyte [11] = assay: Downregulation of C/EBPdelta protein expression level in mouse brown Adipocyte by Western blot analysis; assay type: functional, cell-based
Adipocyte [12] = assay: Effect on C/EBPdelta mRNA level in mouse brown Adipocyte by qRT-PCR analysis; assay type: functional, cell-based
[13] = Effect on CD36 mRNA level in mouse Adipocyte by qRT-PCR analysis; assay type: functional
Adipocyte [14] = assay: Potentiation of CL-316243-stimulated mouse Brown adipocyte activation assessed as increase in Ucp1 expression at 4 uM pretreated with compound for 9 hr followed by CL-316243 induction and measured after 8 hrs by qRT-PCR analysis; assay type: functional, cell-based; settings: time 17.0 hrs
Adipocyte [15] = assay: Potentiation of CL-316243-stimulated mouse Brown adipocyte activation assessed as increase in CIDEA mRNA expression at 4 uM pretreated with compound for 9 hr followed by CL-316243 induction and measured after 8 hrs by qRT-PCR analysis; assay type: functional, cell-based; settings: time 17.0 hrs
Adipocyte [16] = assay: Potentiation of CL-316243-stimulated mouse Brown adipocyte activation assessed as increase in ELOVL3 mRNA expression at 4 uM pretreated with compound for 9 hr followed by CL-316243 induction and measured after 8 hrs by qRT-PCR analysis; assay type: functional, cell-based; settings: time 17.0 hrs
Adipocyte [17] = assay: Potentiation of CL-316243-stimulated mouse Brown adipocyte activation assessed as increase in ELVOL6 mRNA expression at 4 uM pretreated with compound for 9 hr followed by CL-316243 induction and measured after 8 hrs by qRT-PCR analysis; assay type: functional, cell-based; settings: time 17.0 hrs
Adipocyte [18] = assay: Potentiation of CL-316243-stimulated mouse Brown adipocyte activation assessed as increase in PPARA mRNA expression at 4 uM pretreated with compound for 9 hr followed by CL-316243 induction and measured after 8 hrs by qRT-PCR analysis; assay type: functional, cell-based; settings: time 17.0 hrs
Adipocyte [19] = assay: Potentiation of CL-316243-stimulated mouse Brown adipocyte activation assessed as increase in CPT1a mRNA expression at 4 uM pretreated with compound for 9 hr followed by CL-316243 induction and measured after 8 hrs by qRT-PCR analysis; assay type: functional, cell-based; settings: time 17.0 hrs
Adipocyte [20] = assay: Potentiation of CL-316243-stimulated mouse Brown adipocyte activation assessed as increase in CTP1B mRNA expression at 4 uM pretreated with compound for 9 hr followed by CL-316243 induction and measured after 8 hrs by qRT-PCR analysis; assay type: functional, cell-based; settings: time 17.0 hrs
Adipocyte [21] = assay: Potentiation of CL-316243-stimulated mouse Brown adipocyte activation assessed as increase in CPT2 mRNA expression at 4 uM pretreated with compound for 9 hr followed by CL-316243 induction and measured after 8 hrs by qRT-PCR analysis; assay type: functional, cell-based; settings: time 17.0 hrs
Adipocyte [22] = assay: Potentiation of CL-316243-stimulated mouse Brown adipocyte activation assessed as increase in FGF21 mRNA expression at 4 uM pretreated with compound for 9 hr followed by CL-316243 induction and measured after 8 hrs by qRT-PCR analysis; assay type: functional, cell-based; settings: time 17.0 hrs

For COc1c(C)c(O)c2c(=O)c(OC)c(-c3ccc(O)cc3)oc2c1OC, the Activity [1] was “Non-Toxic”, the Activity [2] was “Non-Toxic” and the inhibition at 4 µM [3] was 54.8%. For the same molecule, the Activity [4] was 50.3%, the Activity [5] was 50.3% and the Activity [6] was 50.3%. The Activity [7] was 50.3%, the Activity [8] was 31.93% and the Activity (Adipocyte [9]) was “inactive”. The Activity (Adipocyte [10]) was “inactive”, the Activity (Adipocyte [11]) was “Active” and the Activity (Adipocyte [12]) was “Active”. For the same molecule, the Activity [13] was 24.18%, the Activity (Adipocyte [14]) was “inactive” and the Activity (Adipocyte [15]) was “inactive”. For the same molecule, the Activity (Adipocyte [16]) was “inactive”, the Activity (Adipocyte [17]) was “inactive” and the Activity (Adipocyte [18]) was “inactive”. The Activity (Adipocyte [19]) was “inactive”, the Activity (Adipocyte [20]) was “inactive” and the Activity (Adipocyte [21]) was “inactive”. The Activity (Adipocyte [22]) was “inactive”.
